The values that follow come from patent US10159684B2, “Pharmaceutical compositions for preventing glucocorticoid-induced corneal thinning” (INSERM (INSTITUT NATIONAL DE LA SANTE ET DE LA RECHERCHE …, priority 2013, dated 2018).

The subject of one data set is normal adult mice. As to the kind of experiment: Glucocorticoid-induced reduction of epidermal thickness in normal adult mice, topical application over the back pelage. The data set is classed as in vivo. Particulars: 7 days; for epidermal thickness, MR antagonist added to clobetasol: spironolactone 10 mM added to clobetasol 0.1 mM solution, FIG. 2. As for the experimental part: In another set of experiments, we used normal adult mice that were treated by application of glucocorticoid (clobetasol, as 0.1 mM ethanol solution) alone or together with spironolactone (10 mM) over the back pelage, during 7 days.

The next data set relates to human skin explants. As to the kind of experiment: Organotypic culture of human skin explants, epidermal thickness. Particulars: clobetasol 100 nM plus MR blocker 10 micromolar, 6 days, air/liquid interface; FIG. 3. The data set is classed as cell-based. As for the experimental part:
Human skin explants grown as organotypic culture represent a valuable model to study cx vivo epidermal homeostasis. Skin punches (3 mm) were made (accupunch) from human skin (discarded during mammary gland surgery) and placed in organotypic culture as explants (air/liquid interface) in 2 ml DMEM and 10% decomplemented charcoal-stripped foetal bovine scrum to remove steroids for 6 days, in the presence of clobetasol (100 nM) alone or together with spironolactone or canrenoate (potassium canrenoate) (10 micromolar) or solvent alone (0.1% ethanol).

For data set [1], the system named is mice with MR overexpression in keratinocytes. As to the kind of experiment: MR antagonist given during pregnancy to mice with MR overexpression in keratinocytes (K5-MR). The data set is classed as in vivo. Particulars: pregnant mice received the MR antagonist all along pregnancy; two litters. The text has this:
To test whether the reduced epidermal thickness is related to excessive MR activation in this mouse model, we administered an antagonist of the mineralocorticoid receptor during pregnancy of the mice. […] The question arises to know which MR ligand activates the MR in this condition. Because of the absence of HSD2 (the enzyme that inactivates glucocorticoids) in the epidermis (Kenouch S, Lombes M, Delahaye F, Eugene E, Bonvalet J P, Farman N. Human skin as target for aldosterone: coexpression of mineralocorticoid receptors and 11 beta-hydroxysteroid dehydrogenase. J Clin Endocrinol Metab. 1994: 79(5): 1334-41), it is likely that MR bound ligand is endogenous corticosterone, rather than aldosterone.

On to `C[C@H]1C[C@H]2[C@@H]3CCC4=CC(=O)C=C[C@]4(C)[C@@]3(F)[C@@H](O)C[C@]2(C)[C@@]1(O)C(=O)CCl` [Clobetasol, clobetasol], for which the “epidermal thickness, glucocorticoid alone” value in the data set with normal adult mice (clobetasol 0.1 mM ethanol solution, topical over back pelage) is given as “drastic reduction of epidermal thickness”.
Take `C[C@]12CCC(=O)C=C1C=C[C@@H]1[C@@H]2CC[C@@]2(C)[C@H]1CC[C@@]2(O)CCC(=O)O` [Canrenoate, potassium canrenoate]: the “thickness of the epidermis, MR blocker together with clobetasol” value with human skin explants was “increase the thickness of the epidermis”. For the same molecule, in data set [1], the “epidermal thickness of double-transgenic pups (histology)” value is given as “histologically normal epidermal thickness” and the “skin appearance of double-transgenic pups” value is “normal skin appearance”.
For the molecule `CC(=O)S[C@@H]1CC2=CC(=O)CC[C@]2(C)[C@H]2CC[C@@]3(C)[C@@H](CC[C@@]34CCC(=O)O4)[C@H]12` [spironolactone, 17-hydroxy-7α-mercapto-3-oxo-17α-pregn-4-ene-21-carboxylic acid γ-lactone acetate], the “thickness of the epidermis, MR blocker together with clobetasol” value with human skin explants is “increase the thickness of the epidermis”. In addition, the “epidermal thickness, MR antagonist added to clobetasol” value in the data set on normal adult mice (topical) was “reduction in epidermal thickness induced in mice by the glucocorticoid clobetasol was limited”; in the data set with normal adult mice (topical, listed as Spironolactone), “significantly increased epidermal thickness”. The “epidermal thickness, MR antagonist alone” value in the data set on normal adult mice (spironolactone alone, topical) is on record as “had no effect”.
